How the values were obtained:
Nociceptin receptor [1] = biological target: T1, Nociceptin receptor (Homo sapiens, UniProt P41146); assay: Displacement of [125I][Tyr14]N/OFQ from ORL1 receptor transfected in CHO cells at 1 uM; format: cell-based
Nociceptin receptor [2] = biological target: T1, Nociceptin receptor; assay: Displacement of [125I][Tyr14]N/OFQ from ORL1 receptor transfected in CHO cells; format: cell-based
Nociceptin receptor [3] = biological target: T1, Nociceptin receptor; assay: Antagonist activity against ORL1 receptor by GTPgammaS assay; format: functional

T1 sequence (P41146 whole entry): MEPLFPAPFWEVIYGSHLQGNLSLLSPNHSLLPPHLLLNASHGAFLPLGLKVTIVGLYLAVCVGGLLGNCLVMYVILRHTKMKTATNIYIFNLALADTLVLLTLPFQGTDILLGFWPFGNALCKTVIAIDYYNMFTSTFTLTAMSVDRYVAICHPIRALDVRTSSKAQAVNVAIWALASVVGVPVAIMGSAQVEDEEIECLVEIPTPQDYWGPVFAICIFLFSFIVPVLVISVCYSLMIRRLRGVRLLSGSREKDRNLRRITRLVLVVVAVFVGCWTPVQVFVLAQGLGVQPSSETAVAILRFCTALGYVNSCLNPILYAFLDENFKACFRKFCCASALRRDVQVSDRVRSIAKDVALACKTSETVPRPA

**Q.** For `CN(C)CCc1cccc2[nH]c(-c3nc(CCC4CC4)no3)cc12`, which inhibition (Nociceptin receptor [1]) is on record?
**A.** Its inhibition is 29%.

**Q.** What about the IC50 (Nociceptin receptor [2]) of the same compound?
**A.** Its IC50 is > 1000 nM.

**Q.** Which inhibition (Nociceptin receptor [1]) does the source give for `CN1CCN(c2cc[nH]c3nc(-c4nc(CCc5ccc(Cl)cc5)no4)cc2-3)CC1` here?
**A.** Its inhibition is 27%.

**Q.** What about the IC50 (Nociceptin receptor [2]) of the same compound?
**A.** Its IC50 is > 1000 nM.

**Q.** Which results are given for `CN(C)CCc1cccc2[nH]c(-c3nc(CCc4ccc(N(C)C)cc4)no3)cc12`?
**A.** inhibition (Nociceptin receptor [1]): 44%; IC50 (Nociceptin receptor [2]): > 1000 nM

**Q.** `CN(C)CCc1cccc2[nH]c(-c3nc(CCc4ccc(C(F)(F)F)cc4)no3)cc12` was tested. Which IC50 (Nociceptin receptor [2]) did it give?
**A.** The IC50 was 49 nM.

**Q.** What about the IC50 (Nociceptin receptor [3]) of the same compound?
**A.** Its IC50 is 421 nM.

**Q.** For `CN(C)CCc1cccc2[nH]c(-c3nc(CCC4CCOCC4)no3)cc12`, which inhibition (Nociceptin receptor [1]) is on record?
**A.** Its inhibition is 11%.

**Q.** And the IC50 (Nociceptin receptor [2])?
**A.** Its IC50 is > 1000 nM.

**Q.** For `CN1CCN(c2cccc3[nH]c(-c4nc(CCc5ccc(Cl)cc5)no4)cc23)CC1`, which IC50 (Nociceptin receptor [2]) is on record?
**A.** Its IC50 is 120 nM.

**Q.** For `Cc1ccc(CCc2noc(-c3cc4c(CCN(C)C)cccc4[nH]3)n2)cc1`, which IC50 (Nociceptin receptor [2]) is on record?
**A.** The IC50 was 230 nM.

**Q.** Which inhibition (Nociceptin receptor [1]) does the source give for `CN(C)CCc1ccc2cc(-c3nc(CCc4ccc(Cl)cc4)no3)[nH]c2c1` here?
**A.** Its inhibition is 22%.

**Q.** And the IC50 (Nociceptin receptor [2])?
**A.** The IC50 was > 1000 nM.

**Q.** `CN(C)CCc1cccc2[nH]c(-c3nc(CCc4ccc(F)cc4)no3)cc12` was tested. Which IC50 (Nociceptin receptor [2]) did it give?
**A.** Its IC50 is 450 nM.

**Q.** How did the IC50 (Nociceptin receptor [2]) turn out when `CN(C)CCc1cccc2[nH]c(-c3nc(CC4CCCCC4)no3)cc12` was run?
**A.** The IC50 was 440 nM.

**Q.** Which results are given for `CCCc1noc(-c2cc3c(CCN(C)C)cccc3[nH]2)n1`?
**A.** inhibition (Nociceptin receptor [1]): 14%; IC50 (Nociceptin receptor [2]): > 1000 nM

**Q.** Which results are given for `CN(C)CCc1cccc2[nH]c(C(=O)NCCCc3ccc(Cl)cc3)cc12`?
**A.** inhibition (Nociceptin receptor [1]): 41%; IC50 (Nociceptin receptor [2]): > 1000 nM

**Q.** How did the inhibition (Nociceptin receptor [1]) turn out when `CN(C)CCc1ccc2[nH]c(-c3nc(CCc4ccc(Cl)cc4)no3)cc2c1` was run?
**A.** The inhibition was 3%.

**Q.** And the IC50 (Nociceptin receptor [2])?
**A.** Its IC50 is > 1000 nM.

**Q.** How did the IC50 (Nociceptin receptor [2]) turn out when `Clc1ccc(CCc2noc(-c3cc4c(CCN5CCCC5)cccc4[nH]3)n2)cc1` was run?
**A.** Its IC50 is 568 nM.

**Q.** Which IC50 (Nociceptin receptor [2]) does the source give for `CN(C)CCc1cccc2[nH]c(-c3nc(COc4ccc(Cl)cc4)no3)cc12` here?
**A.** The IC50 was 410 nM.

**Q.** For `COC(C)(C)CCc1noc(-c2cc3c(CCN(C)C)cccc3[nH]2)n1`, which inhibition (Nociceptin receptor [1]) is on record?
**A.** The inhibition was 4%.

**Q.** And the IC50 (Nociceptin receptor [2])?
**A.** The IC50 was > 1000 nM.

**Q.** What does the source list for `CN(C)CCc1cccc2[nH]c(-c3ncc(CCc4ccc(Cl)cc4)o3)cc12`?
**A.** inhibition (Nociceptin receptor [1]): 37%; IC50 (Nociceptin receptor [2]): > 1000 nM

**Q.** How did the IC50 (Nociceptin receptor [2]) turn out when `CN(C)CCCc1cccc2[nH]c(-c3nc(CCc4ccc(Cl)cc4)no3)cc12` was run?
**A.** Its IC50 is 210 nM.

**Q.** `CN(C)CCc1cccc2[nH]c(-c3nc(Cc4ccc(Cl)cc4)no3)cc12` was tested. Which IC50 (Nociceptin receptor [2]) did it give?
**A.** The IC50 was 450 nM.

**Q.** How did the IC50 (Nociceptin receptor [2]) turn out when `CN(C)CCc1cccc2[nH]c(-c3noc(CCc4ccc(Cl)cc4)n3)cc12` was run?
**A.** Its IC50 is 600 nM.

**Q.** `CN(C)CCc1cccc2[nH]c(-c3nc(CCC(C)(C)C)no3)cc12` was tested. Which inhibition (Nociceptin receptor [1]) did it give?
**A.** The inhibition was 20%.

**Q.** And the IC50 (Nociceptin receptor [2])?
**A.** Its IC50 is > 1000 nM.

**Q.** Which inhibition (Nociceptin receptor [1]) does the source give for `CN(C)CCc1cccc2[nH]c(-c3nc(CCc4ccncc4)no3)cc12` here?
**A.** Its inhibition is 12%.

**Q.** What about the IC50 (Nociceptin receptor [2]) of the same compound?
**A.** The IC50 was > 1000 nM.

**Q.** With `CN(C)CCc1cccc2[nH]c(-c3nc(CCC4CC5CCC4C5)no3)cc12` (centres undefined) as the compound, how does the IC50 (Nociceptin receptor [2]) read?
**A.** The IC50 was 440 nM.

**Q.** How did the inhibition (Nociceptin receptor [1]) turn out when `CN(C)CCc1cccc2[nH]c(-c3nnc(CCc4ccc(Cl)cc4)o3)cc12` was run?
**A.** Its inhibition is 39%.

**Q.** What about the IC50 (Nociceptin receptor [2]) of the same compound?
**A.** Its IC50 is > 1000 nM.

**Q.** For `CN(C)CCOCCc1cccc2[nH]c(-c3nc(CCc4ccc(Cl)cc4)no3)cc12`, which IC50 (Nociceptin receptor [2]) is on record?
**A.** The IC50 was 97 nM.

**Q.** And the IC50 (Nociceptin receptor [3])?
**A.** Its IC50 is 450 nM.

**Q.** What does the source list for `CN(C)CCc1cccc2[nH]c(-c3nc(CCCc4ccc(Cl)cc4)no3)cc12`?
**A.** inhibition (Nociceptin receptor [1]): 49%; IC50 (Nociceptin receptor [2]): > 1000 nM

**Q.** What does the source list for `CN(C)CCc1cccc2[nH]c(-c3nc(CCc4ccc(Cl)cc4)no3)cc12`?
**A.** IC50 (Nociceptin receptor [2]): 95 nM; IC50 (Nociceptin receptor [3]): 632 nM

**Q.** Which inhibition (Nociceptin receptor [1]) does the source give for `CN1CCCC1c1ccc2[nH]c(-c3nc(CCc4ccc(Cl)cc4)no3)cc2c1C1CCCN1C` (centres undefined) here?
**A.** Its inhibition is 31%.

**Q.** And the IC50 (Nociceptin receptor [2])?
**A.** The IC50 was > 1000 nM.

**Q.** `CN(C)CCc1cccc2[nH]c(-c3nnn(CCc4ccc(Cl)cc4)n3)cc12` was tested. Which inhibition (Nociceptin receptor [1]) did it give?
**A.** Its inhibition is 46%.

**Q.** What about the IC50 (Nociceptin receptor [2]) of the same compound?
**A.** The IC50 was > 1000 nM.

**Q.** `CN(C)CCc1cccc2[nH]c(-c3nc(CCC4CCCC4)no3)cc12` was tested. Which IC50 (Nociceptin receptor [2]) did it give?
**A.** Its IC50 is 580 nM.

**Q.** `CN(C)CCc1cccc2[nH]c(-c3nc(CCCC4CCCCC4)no3)cc12` was tested. Which IC50 (Nociceptin receptor [2]) did it give?
**A.** Its IC50 is 71 nM.

**Q.** What about the IC50 (Nociceptin receptor [3]) of the same compound?
**A.** The IC50 was 294 nM.

**Q.** Which IC50 (Nociceptin receptor [2]) does the source give for `CN1CCC(c2cccc3[nH]c(-c4nc(CCc5ccc(Cl)cc5)no4)cc23)CC1` here?
**A.** The IC50 was 62 nM.

**Q.** What about the IC50 (Nociceptin receptor [3]) of the same compound?
**A.** The IC50 was 899 nM.

**Q.** For `Clc1ccc(CCc2noc(-c3cc4c(CCN5CCOCC5)cccc4[nH]3)n2)cc1`, which inhibition (Nociceptin receptor [1]) is on record?
**A.** The inhibition was 15%.

**Q.** And the IC50 (Nociceptin receptor [2])?
**A.** The IC50 was > 1000 nM.

**Q.** `CN(C)CCc1cccc2[nH]c(C(=O)NCCc3ccc(Cl)cc3)cc12` was tested. Which inhibition (Nociceptin receptor [1]) did it give?
**A.** The inhibition was 18%.

**Q.** What about the IC50 (Nociceptin receptor [2]) of the same compound?
**A.** The IC50 was > 1000 nM.

**Q.** How did the IC50 (Nociceptin receptor [2]) turn out when `CN(C)CCc1cccc2[nH]c(-c3nc(CCC4CCCCC4)no3)cc12` was run?
**A.** The IC50 was 140 nM.

**Q.** Which IC50 (Nociceptin receptor [2]) does the source give for `CCN(C)CCc1cccc2[nH]c(-c3nc(CCc4ccc(Cl)cc4)no3)cc12` here?
**A.** Its IC50 is 58 nM.

**Q.** And the IC50 (Nociceptin receptor [3])?
**A.** Its IC50 is 223 nM.

**Q.** What does the source list for `CN(C)CCc1cccc2[nH]c(-c3nc(CCc4ccccn4)no3)cc12`?
**A.** inhibition (Nociceptin receptor [1]): 11%; IC50 (Nociceptin receptor [2]): > 1000 nM

**Q.** `CN(C)CCc1cccc2cc(-c3nc(CCc4ccc(Cl)cc4)no3)[nH]c12` was tested. Which inhibition (Nociceptin receptor [1]) did it give?
**A.** Its inhibition is 18%.

**Q.** And the IC50 (Nociceptin receptor [2])?
**A.** Its IC50 is > 1000 nM.

**Q.** With `COc1ccc(CCc2noc(-c3cc4c(CCN(C)C)cccc4[nH]3)n2)cc1` as the compound, how does the IC50 (Nociceptin receptor [2]) read?
**A.** The IC50 was 560 nM.

**Q.** What does the source list for `CN(C)CCc1cccc2[nH]c(-c3nc(CCc4cccnc4)no3)cc12`?
**A.** inhibition (Nociceptin receptor [1]): 1.7%; IC50 (Nociceptin receptor [2]): > 1000 nM

**Q.** `CN(C)CCc1cccc2[nH]c(-c3nc(CCc4ccccc4)no3)cc12` was tested. Which inhibition (Nociceptin receptor [1]) did it give?
**A.** Its inhibition is 46%.

**Q.** What about the IC50 (Nociceptin receptor [2]) of the same compound?
**A.** The IC50 was > 1000 nM.

**Q.** With `CC(C)CCc1noc(-c2cc3c(CCN(C)C)cccc3[nH]2)n1` as the compound, how does the inhibition (Nociceptin receptor [1]) read?
**A.** The inhibition was 29%.

**Q.** And the IC50 (Nociceptin receptor [2])?
**A.** The IC50 was > 1000 nM.

**Q.** Which IC50 (Nociceptin receptor [2]) does the source give for `CN1CCN(c2[nH]ccc3nc(-c4nc(CCc5ccc(Cl)cc5)no4)cc2-3)CC1` here?
**A.** The IC50 was 40 nM.

**Q.** And the IC50 (Nociceptin receptor [3])?
**A.** The IC50 was 199 nM.

**Q.** With `CCCCc1noc(-c2cc3c(CCN(C)C)cccc3[nH]2)n1` as the compound, how does the inhibition (Nociceptin receptor [1]) read?
**A.** The inhibition was 42%.

**Q.** And the IC50 (Nociceptin receptor [2])?
**A.** The IC50 was > 1000 nM.

**Q.** For `CN(C)CCc1cccc2[nH]c(-c3nc(CCCN4CCCC4)no3)cc12`, which inhibition (Nociceptin receptor [1]) is on record?
**A.** Its inhibition is 0%.

**Q.** And the IC50 (Nociceptin receptor [2])?
**A.** The IC50 was > 1000 nM.

**Q.** For `CN(C)Cc1cccc2[nH]c(-c3nc(CCc4ccc(Cl)cc4)no3)cc12`, which IC50 (Nociceptin receptor [2]) is on record?
**A.** Its IC50 is 62 nM.

**Q.** What about the IC50 (Nociceptin receptor [3]) of the same compound?
**A.** Its IC50 is 233 nM.
